Measurements as given in patent US10689381B2 (priority 2017, dated 2020).
Values after ≈ are worked out from the molar mass of the structure shown. Like-named read-outs stand apart in the source and are kept apart here.

Tests used:
L1210 = test: cells; format: cell-based, mouse
How it was run: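 Compound exposure ran 72 h at six concentrations (0–1000 nM or 0–10000 nM, duplicate) on cells plated at 30,000 cells/mL in 10% FBS DMEM. A closing 37 °C incubation took 15 min (HCT116) or 5 min (L1210).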

A549 = test: cells; format: cell-based, human; conditions: read-out: IC50 A549
From the text: (§1) 2001, 98:11737; Kavallaris et al., Brit. J. Cancer. 1999, 80:1020; and Kavallaris et al., J. Clin. Invest. 1997, 100:1282]. As a result, the comparison of cell growth inhibition of candidate drugs against A549 vs A549-T24 has been used to characterize potential resistance due to increased expression of class III β-tubulin [Goncalves et al., Proc. Natl. Acad. Sci. USA. 2001, 98:11737; Kavallaris et al., Brit. J. Cancer. 1999, 80:1020; and Kavallaris et al., J. Clin. Invest. 1997, 100:1282].

A549-T24 = test: cells; format: cell-based, human
From the text: as §1

Pgp = Pgp (Homo sapiens, UniProt P08183); test: Drug-stimulated Pgp ATPase activity in membranes (MDR1 PREDEASY ATPase kit)
Sequence of Pgp (P08183 whole entry): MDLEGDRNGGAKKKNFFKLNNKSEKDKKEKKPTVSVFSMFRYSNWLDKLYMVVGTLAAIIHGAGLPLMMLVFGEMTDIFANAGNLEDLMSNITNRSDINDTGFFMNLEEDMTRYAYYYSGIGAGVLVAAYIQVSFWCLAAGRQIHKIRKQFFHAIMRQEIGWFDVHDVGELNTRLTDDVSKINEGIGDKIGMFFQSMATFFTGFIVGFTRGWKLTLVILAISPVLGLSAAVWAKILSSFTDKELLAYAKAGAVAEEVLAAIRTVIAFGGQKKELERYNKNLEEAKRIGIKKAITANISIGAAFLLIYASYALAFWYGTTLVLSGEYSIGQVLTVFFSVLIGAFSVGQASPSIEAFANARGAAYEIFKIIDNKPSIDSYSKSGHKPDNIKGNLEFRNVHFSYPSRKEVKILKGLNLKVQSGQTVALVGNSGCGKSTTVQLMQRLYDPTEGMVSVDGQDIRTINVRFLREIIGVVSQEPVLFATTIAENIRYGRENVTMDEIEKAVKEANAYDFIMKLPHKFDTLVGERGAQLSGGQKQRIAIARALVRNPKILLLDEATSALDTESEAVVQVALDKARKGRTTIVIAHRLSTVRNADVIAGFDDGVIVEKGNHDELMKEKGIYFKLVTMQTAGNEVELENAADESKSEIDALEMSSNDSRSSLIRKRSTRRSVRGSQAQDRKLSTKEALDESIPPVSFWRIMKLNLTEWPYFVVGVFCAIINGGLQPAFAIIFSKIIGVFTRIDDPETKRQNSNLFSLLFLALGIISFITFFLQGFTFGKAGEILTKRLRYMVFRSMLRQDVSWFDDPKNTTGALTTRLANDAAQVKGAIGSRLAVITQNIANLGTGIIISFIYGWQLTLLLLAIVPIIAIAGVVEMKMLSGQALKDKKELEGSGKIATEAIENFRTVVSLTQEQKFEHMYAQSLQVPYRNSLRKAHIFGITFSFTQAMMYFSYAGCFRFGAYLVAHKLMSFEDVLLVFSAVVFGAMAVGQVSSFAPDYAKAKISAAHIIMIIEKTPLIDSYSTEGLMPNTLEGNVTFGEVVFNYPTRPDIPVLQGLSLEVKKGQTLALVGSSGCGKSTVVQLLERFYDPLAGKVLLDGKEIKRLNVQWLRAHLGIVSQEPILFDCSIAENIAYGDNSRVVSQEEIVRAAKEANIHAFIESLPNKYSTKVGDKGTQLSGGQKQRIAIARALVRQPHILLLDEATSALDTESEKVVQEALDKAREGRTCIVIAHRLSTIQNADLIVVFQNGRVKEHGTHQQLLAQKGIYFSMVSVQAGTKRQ

HCT116/VM46 = test: cells; format: cell-based, human
Protocol: Compounds were tested for their cell growth inhibition of L1210 (ATCC no. CCL-219, mouse lymphocytic leukemia), HCT116 (ATCC no. CCL-247, human colorectal carcinoma), and HCT116/VM46 (a vinblastine-resistant strain of HCT116) cells in culture. A population of cells (>1×10^6 cells/mL as determined with a hemocytometer) was diluted with Dulbecco's Modified Eagle Medium (DMEM, Gibco) containing 10% fetal bovine serum (FBS, Gibco) to give a final concentration of 30,000 cells/mL. To each well of a 96-well plate (Corning® Costar®) was added 100 μL of the cell media solution with a multichannel pipet. The cultures were incubated at 37° C. in an atmosphere of 5% CO2 and 95% humidified air for 24 hours.
The test compounds were then added to the plate as follows: test compounds were diluted in DMSO to a concentration of 1 mM. 10-Fold serial dilutions in DMSO were next performed on a separate 96-well plate. Fresh culture media (100 μL) was added to each well of cells resulting in 200 μL of medium per well followed by 2 μL of each test agent. Compounds were tested in duplicate (n=2-8 times) at six concentrations between 0-1000 nM or 0-10000 nM. Following the addition of compound, cultures were incubated for an additional 72 hours.
The plates were incubated at 37° C. for 5 minutes (L1210) or 15 min (HCT116 and HCT116/VM46). After the given incubation time, 50 μL of 0.1 N NaOH was added to each well and the absorption at 405 nm was determined using a 96 well plate reader. […]

Protocol for Tubulin: Control studies were performed with BODIPY-VBL in the absence of a competitive ligand (control 1, maximum FI enhancement) and in the absence of tubulin (control 2, no FI enhancement). Percent (%) BODIPY-VBL displacement was calculated by the formula: (control 1 FI−experiment FI)/(Control 1 FI−Control 2 FI)×100%. Reported values are the average of 5 measurements±SD.

## CC[C@]1(O)C[C@@H]2CN(CCc3c([nH]c4ccccc34)[C@@](C(=O)OC)(c3cc4c(cc3OC)N(C)[C@H]3[C@@](O)(C(=O)OC)[C@H](OC(C)=O)[C@]5(CC)C=CCN6CC[C@]43[C@@H]65)C2)C1 [Vinblastine (1), Vinblastine, reference compound]
Tubulin; FIG. 2, competitive ligand 18 μM
  percent (%) displacement of tubulin-bound BODIPY-vinblastine: 50%
Tubulin; Table 9, displacement of tubulin bound BODIPY-vinblastine
  % displacement: 61 ± 13%
L1210
  IC50: 6 nM
L1210; Table 1
  IC50: 6 nM
L1210; Table 2
  IC50: 6 nM
L1210; Table 3
  IC50: 6 nM
L1210; Table 4
  IC50: 6 nM
L1210; Table 5
  IC50: 6 nM
L1210; Table 6
  IC50: 6 nM
L1210; Table 7, C20′ sulfonamides
  IC50: 6 nM
L1210; Table 8, 10′-F compounds
  IC50: 6 nM
A549
  IC50: 7.7 nM
A549-T24
  IC50: 6.7 nM
Pgp
  % Pgp ATPase activity: 87%
Caco-2 cells
  Papp, B to A: 38.2 ± 2.0 x 10^−6 cm/s
HCT116/VM46
  MIC, HCT116/VM46 cells: 0.6 µM (≈ 0.487 µg/mL)
  differential in activity between sensitive and resistant HCT116 cell lines: 88 fold
HCT116/VM46; Table 1, read-out: IC50 HCT116/VM46
  IC50: 600 nM
HCT116/VM46; Table 2, read-out: IC50 HCT116/VM46
  IC50: 600 nM
HCT116/VM46; Table 3, read-out: IC50 HCT116/VM46
  IC50: 600 nM
HCT116/VM46; Table 4, read-out: IC50 HCT116/VM46
  IC50: 600 nM
HCT116/VM46; Table 5, read-out: IC50 HCT116/VM46
  IC50: 600 nM
HCT116/VM46; Table 6, read-out: IC50 HCT116/VM46
  IC50: 600 nM
HCT116/VM46; Table 7, C20′ sulfonamides, read-out: IC50 HCT116/VM46
  IC50: 600 nM
HCT116/VM46; Table 8, 10′-F compounds, read-out: IC50 HCT116/VM46
  IC50: 600 nM
HCT116/VM46; Table 10, read-out: IC50 (nM), HCT116/VM46
  IC50: 600 nM
HCT116/VM46; read-out: IC50 HCT116/VM46
  IC50: 600 nM
HCT116/VM46; table in Background, C20′ substituent X, read-out: IC50, HCT116/VM46
  IC50: 600 nM
